Measurements from the supplement of paper PMC10307832.

Assays:
Experiment in all cases: relative viability (nuclei count vs DMSO), 5 days (fraction); higher = more cells survive
Alisertib + Palbociclib = compound: COc1cc(Nc2ncc3c(n2)-c2ccc(Cl)cc2C(c2c(F)cccc2OC)=NC3)ccc1C(=O)O [Alisertib] + CC(=O)c1c(C)c2cnc(Nc3ccc(N4CCNCC4)cn3)nc2n(C2CCCC2)c1=O [Palbociclib] (partner 0.5 µM)
Outline: (§1)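 Each reported value is a median over duplicate plates. It expresses relative viability: treated-well nuclei count divided by vehicle-well nuclei count. Lung cancer cell lines in 1536-well plates were dosed by pin tool a day after seeding, alone with one drug or with a fixed anchor-drug dose plus five library-drug doses (not always all listed) in √10 steps, and nuclei were counted after 5 days.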

Alisertib + Luminespib = compound: COc1cc(Nc2ncc3c(n2)-c2ccc(Cl)cc2C(c2c(F)cccc2OC)=NC3)ccc1C(=O)O [Alisertib] + CCNC(=O)c1noc(-c2cc(C(C)C)c(O)cc2O)c1-c1ccc(CN2CCOCC2)cc1 [Luminespib] (partner 0.01 µM)
Outline: as §1

Alisertib + OSI-027 = compound: COc1cc(Nc2ncc3c(n2)-c2ccc(Cl)cc2C(c2c(F)cccc2OC)=NC3)ccc1C(=O)O [Alisertib] + COc1cccc2cc(-c3nc([C@H]4CC[C@H](C(=O)O)CC4)n4ncnc(N)c34)[nH]c12 [OSI-027] (partner 0.5 µM)
Outline: as §1

Alisertib + Pictilisib = compound: COc1cc(Nc2ncc3c(n2)-c2ccc(Cl)cc2C(c2c(F)cccc2OC)=NC3)ccc1C(=O)O [Alisertib] + CS(=O)(=O)N1CCN(Cc2cc3nc(-c4cccc5[nH]ncc45)nc(N4CCOCC4)c3s2)CC1 [Pictilisib] (partner 1 µM)
Outline: as §1

Row | Cell Line | relative viability (Alisertib + Palbociclib; first compound 0.005 µM) | relative viability (Alisertib + Palbociclib; first compound 0.01581 µM) | relative viability (Alisertib + Palbociclib; first compound 0.05 µM) | relative viability (Alisertib + Palbociclib; first compound 0.1581 µM) | relative viability (Alisertib + Palbociclib; first compound 0.5 µM) | relative viability (Alisertib + Luminespib; first compound 0.005 µM) | relative viability (Alisertib + Luminespib; first compound 0.01581 µM) | relative viability (Alisertib + Luminespib; first compound 0.05 µM) | relative viability (Alisertib + Luminespib; first compound 0.1581 µM) | relative viability (Alisertib + Luminespib; first compound 0.5 µM) | relative viability (Alisertib + OSI-027; first compound 0.005 µM) | relative viability (Alisertib + OSI-027; first compound 0.01581 µM) | relative viability (Alisertib + OSI-027; first compound 0.05 µM) | relative viability (Alisertib + OSI-027; first compound 0.1581 µM) | relative viability (Alisertib + OSI-027; first compound 0.5 µM) | relative viability (Alisertib + Pictilisib; first compound 0.005 µM) | relative viability (Alisertib + Pictilisib; first compound 0.01581 µM) | relative viability (Alisertib + Pictilisib; first compound 0.05 µM) | relative viability (Alisertib + Pictilisib; first compound 0.1581 µM) | relative viability (Alisertib + Pictilisib; first compound 0.5 µM)
1 | HCC-44 | 0.949 | 0.85 | 0.636 | 0.616 | 0.338 | 0.91 | 0.667 | 0.355 | 0.18 | 0.176 | 0.465 | 0.313 | 0.368 | 0.166 | 0.186 | 0.623 | 0.598 | 0.572 | 0.153 | 0.159
2 | NCI-H460 | 0.143 | 0.13 | 0.123 | 0.0185 | 0.0401 | 0.0403 | 0.0274 | 0.0247 | 0.0194 | 0.0287 | 0.618 | 0.578 | 0.218 | 0.0256 | 0.0214 | 0.364 | 0.428 | 0.327 | 0.0613 | 0.0689
3 | SW 1573 | 0.304 | 0.27 | 0.152 | 0.134 | 0.117 | 0.28 | 0.139 | 0.106 | 0.0766 | 0.102 | 0.556 | 0.5 | 0.284 | 0.148 | 0.102 | 0.466 | 0.387 | 0.2 | 0.158 | 0.112
4 | NCI-H322M | 0.473 | 0.475 | 0.477 | 0.413 | 0.417 | 0.84 | 0.671 | 0.475 | 0.37 | 0.452 | 0.568 | 0.517 | 0.466 | 0.326 | 0.351 | 0.497 | 0.477 | 0.451 | 0.321 | 0.311
5 | EKVX | 0.386 | 0.431 | 0.27 | 0.183 | 0.176 | 0.711 | 0.74 | 0.356 | 0.168 | 0.169 | 0.654 | 0.631 | 0.251 | 0.158 | 0.136 | 0.405 | 0.418 | 0.266 | 0.157 | 0.15
6 | NCI-H1734 | 0.397 | 0.325 | 0.296 | 0.245 | 0.188 | 0.172 | 0.214 | 0.149 | 0.146 | 0.132 | 0.562 | 0.436 | 0.296 | 0.277 | 0.18 | 0.427 | 0.4 | 0.283 | 0.226 | 0.17
7 | ABC-1 | 0.697 | 0.661 | 0.67 | 0.371 | 0.316 | – | – | 0.491 | 0.366 | 0.136 | 0.42 | 0.375 | 0.339 | 0.195 | 0.185 | 0.674 | 0.606 | 0.578 | 0.277 | 0.232
8 | NCI-H520 | 0.196 | 0.232 | 0.214 | 0.177 | 0.155 | 0.237 | 0.202 | 0.197 | 0.209 | 0.193 | 0.253 | 0.221 | 0.204 | 0.18 | 0.182 | 0.23 | 0.203 | 0.209 | 0.179 | 0.187
9 | EPLC-272H | 0.32 | 0.318 | 0.303 | 0.236 | 0.238 | 0.275 | 0.166 | 0.122 | 0.112 | 0.134 | 0.275 | 0.282 | 0.256 | 0.131 | 0.124 | 0.281 | 0.244 | 0.227 | 0.14 | 0.124
10 | NCI-H1792 | 0.697 | 0.522 | 0.423 | 0.343 | 0.169 | 0.481 | 0.533 | 0.225 | 0.195 | 0.17 | 0.665 | 0.622 | 0.399 | 0.257 | 0.178 | 0.304 | 0.223 | 0.0811 | 0.0732 | 0.0644
11 | NCI-H1993 | 0.583 | 0.672 | 0.529 | 0.402 | 0.35 | 0.891 | 0.791 | 0.558 | 0.456 | 0.492 | 0.55 | 0.46 | 0.435 | 0.547 | 0.512 | 0.895 | 0.785 | 0.67 | 0.568 | 0.778
12 | NCI-H647 | 0.282 | 0.332 | 0.161 | 0.0956 | 0.0773 | 0.151 | 0.132 | 0.0794 | 0.0983 | 0.0961 | 0.662 | 0.487 | 0.227 | 0.116 | 0.102 | 0.42 | 0.449 | 0.274 | 0.137 | 0.0788
13 | NCI-H1793 | 0.332 | 0.3 | 0.273 | 0.215 | 0.234 | 0.171 | 0.147 | 0.156 | 0.127 | 0.136 | 0.257 | 0.149 | 0.213 | 0.193 | 0.149 | 0.327 | 0.297 | 0.23 | 0.18 | 0.208
14 | NCI-H1395 | 0.603 | 0.6 | 0.597 | 0.44 | 0.388 | 0.78 | 0.561 | 0.566 | 0.342 | 0.343 | 0.521 | 0.605 | 0.527 | 0.415 | 0.356 | 0.566 | 0.517 | 0.597 | 0.492 | 0.377
15 | HCC-827 | 0.459 | 0.537 | 0.379 | 0.27 | 0.207 | 0.48 | 0.598 | 0.204 | 0.209 | 0.234 | 0.722 | 0.755 | 0.685 | 0.257 | 0.18 | 0.869 | 0.978 | 0.515 | 0.381 | 0.361
16 | ChaGo-K-1 | 0.817 | 0.686 | 0.219 | 0.203 | 0.166 | 0.565 | 0.451 | 0.258 | 0.169 | 0.217 | 0.423 | 0.537 | 0.349 | 0.138 | 0.15 | 0.632 | 0.457 | 0.267 | 0.283 | 0.184
17 | NCI-H2228 | 0.641 | 0.689 | 0.378 | 0.118 | 0.125 | 0.111 | 0.117 | 0.112 | 0.144 | 0.186 | 0.589 | 0.466 | 0.27 | 0.0993 | 0.115 | 0.362 | 0.419 | 0.228 | 0.119 | 0.138
18 | NCI-H2170 | 0.366 | 0.365 | 0.243 | 0.22 | 0.155 | 0.518 | 0.777 | 0.317 | 0.318 | 0.207 | 0.721 | 0.629 | 0.644 | 0.323 | 0.201 | 0.276 | 0.303 | 0.282 | 0.19 | 0.192
19 | EMC-BAC-2 | 0.51 | 0.416 | 0.4 | 0.382 | 0.268 | 1.09 | 0.967 | 0.395 | 0.292 | 0.23 | 0.334 | 0.29 | 0.231 | 0.217 | 0.178 | 0.516 | 0.414 | 0.291 | 0.271 | 0.233
20 | NCI-H23 | 0.476 | 0.442 | 0.319 | 0.205 | 0.203 | 0.219 | 0.236 | 0.204 | 0.224 | 0.214 | 0.518 | 0.377 | 0.287 | 0.17 | 0.144 | 0.422 | 0.302 | 0.18 | 0.185 | 0.147
21 | SK-LU-1 | 0.395 | 0.364 | 0.22 | 0.242 | 0.236 | 0.178 | 0.18 | 0.159 | 0.184 | 0.178 | 0.369 | 0.233 | 0.182 | 0.18 | 0.163 | 0.58 | 0.386 | 0.312 | 0.266 | 0.209
22 | NCI-H358 | 0.111 | 0.117 | 0.104 | 0.0711 | 0.0985 | 0.321 | 0.243 | 0.133 | 0.114 | 0.105 | 0.716 | 0.507 | 0.144 | 0.0797 | 0.0701 | 0.269 | 0.327 | 0.217 | 0.154 | 0.14
23 | LC-2-ad | 0.413 | 0.459 | 0.282 | 0.276 | 0.21 | 0.892 | 0.435 | 0.39 | 0.392 | 0.32 | 0.587 | 0.368 | 0.441 | 0.307 | 0.268 | 0.116 | 0.251 | 0.107 | 0.108 | 0.105
24 | HCC-15 | 0.661 | 0.465 | 0.296 | 0.213 | 0.146 | 0.327 | 0.371 | 0.167 | 0.108 | 0.128 | 0.578 | 0.504 | 0.227 | 0.118 | 0.12 | 0.586 | 0.64 | 0.233 | 0.117 | 0.123
25 | NCI-H2405 | 0.497 | 0.504 | 0.495 | 0.317 | 0.257 | 0.735 | 0.619 | 0.745 | 0.356 | 0.285 | 0.63 | 0.666 | 0.592 | 0.321 | 0.231 | 0.433 | 0.358 | 0.365 | 0.274 | 0.176
26 | LXF-289 | 0.571 | 0.527 | 0.267 | 0.204 | 0.181 | 0.455 | 0.325 | 0.16 | 0.0792 | 0.142 | 0.637 | 0.656 | 0.461 | 0.123 | 0.0861 | 0.701 | 0.565 | 0.576 | 0.103 | 0.0904
27 | CAL-12T | 0.327 | 0.259 | 0.188 | 0.138 | 0.172 | 0.412 | 0.205 | 0.1 | 0.169 | 0.188 | 0.488 | 0.277 | 0.137 | 0.165 | 0.118 | 0.322 | 0.294 | 0.134 | 0.246 | 0.218
